Test results from patent publication US20260193642A1, “DIRECT MEASUREMENT OF ENGINEERED CANCER MUTATIONS AND THEIR TRANSCRIPTIONAL PHENOTYPES IN SINGLE CELLS” (The Board of Trustees of the Leland Stanford Junior …, priority 2022, published 2026).

Assays:
[1] = system: HCT116 cells; assay: Cell cycle analysis, EdU and propidium iodide flow cytometry assay; type: cell-based, human; conditions: 24 hrs nutlin-3a treatment
Protocol: Cell cycle analysis: Click-iT™ Plus EdU Alexa Fluor™ 488 Flow Cytometry Assay Kit (Life technologies) was used according to manufacturer's protocol. Briefly, cells were plated a day prior to nutlin-3a or vehicle treatment. After 24 hrs of chemical treatment, cells in S-phase were labeled with […] EdU solution for 2 hrs. FxCycle™ PI/RNase Staining Solution (Life technologies) was used for PI staining. After the staining, cells were analyzed by NovoCyte Quanteon Flow Cytometer Systems (Agilent, Santa Clara, CA, USA).
The PI assay detects total DNA amounts for G1 and G2-phase comparison. The EdU assay labels newly synthesized DNA to detect S-phase.

[2] = system: p53 pathway; conditions: U2OS cells (wild-type TP53); 10 μM nutlin-3a; 5 μM, 10 μM and 20 μM tested
Excerpt: Cell culture conditions: HEK293T (ATCC CRL-11268) and MMNK-1 (JCRB1554) cells were maintained in Dulbecco's modified Eagle's medium (DMEM) with 10% fetal bovine serum (FBS). HCT116 (ATCC CCL-247) cells and U2OS (ATCC HTB-96) were maintained in McCoy's 5A modified medium supplemented with 10% FBS. […] K562 (ATCC CCL-243) cells were maintained in RPMI 1640 with 10% FBS. Cells were authenticated by STR profiling. All cell lines were confirmed by PCR to be free of mycoplasma contamination.
HCT116 and U2OS human cell lines were used for this study. Both cell lines have wild-type TP53 which was independently confirmed.

Structure (SMILES): COc1ccc(C2=N[C@@H](c3ccc(Cl)cc3)[C@@H](c3ccc(Cl)cc3)N2C(=O)N2CCNC(=O)C2)c(OC(C)C)c1 [nutlin-3a]
- cell cycle arrest ([1]; HCT116 clonal cells with TP53 I195T mutation, FIG. 4C, P=0.95): did not undergo arrest
- cell cycle arrest ([1]; HCT116 clonal cells with TP53 Y220C mutation, FIG. 4C, P=0.95): did not undergo arrest
- cell cycle arrest ([1]; wild-type HCT116 cells, FIG. 4c, P<2.2e-16): arrested
- p53 pathway activation [2]: successful p53 pathway activation
